Values of other authors in patent US11260065B2, “Storage-stable ready-to-use injectable formulations of thiotepa” (RK Pharma Solutions LLC, priority 2018, dated 2022).

Key:
[1] = water and organic solvents
[2] = acid medium

S=P(N1CC1)(N1CC1)N1CC1 [Thiotepa, tris(1-aziridinyl)phosphine sulfide]
Solubility [1]: soluble in water and organic solvents
Stability [2]: unstable in acid medium
